This note sets out measurements from ChEMBL document CHEMBL5096149, “Recent Update on Targeting c-MYC G-Quadruplexes by Small Molecules for Anticancer Therapeutics” (J Med Chem, 2021).

For series [1], the system named is Quadruplex DNA. In words: Binding affinity to c-MYC G-quadruplex DNA (unknown origin) assessed as association rate constant by UV-Vis spectroscopy. It is filed as nucleic-acid assay.
Series [2] has as its system Quadruplex DNA. Nature of the series: Thermal stabilization of c-MYC G-quadruplex DNA (unknown origin) assessed as change in melting temperature at 1:3 ratio by circular dichroism spectroscopy. It is filed as nucleic-acid assay. In general terms: CD spectra are sensitive to the conformation of chiral molecules.
Series [3] concerns Quadruplex DNA. Nature of the series: Binding affinity to c-MYC G-quadruplex DNA (unknown origin) assessed as association rate constant by fluorometric titration method. Format: nucleic-acid assay.
In series [4] the test system is Quadruplex DNA. Nature of the series: Thermal stabilization of c-MYC G-quadruplex DNA (unknown origin) assessed as change in melting temperature at 1:10 ratio by FRET melting assay. It is filed as nucleic-acid assay.
In series [5] the test system is Quadruplex DNA. Nature of the series: Thermal stabilization of c-MYC G-quadruplex DNA (unknown origin) assessed as change in melting temperature at 1:5 ratio by circular dichroism spectroscopy. Format: nucleic-acid assay.
Series [6] has as its system Quadruplex DNA. Nature of the series: Binding affinity to c-MYC G-quadruplex DNA (unknown origin) assessed as association constant by fluorescence spectroscopy. It is filed as nucleic-acid assay.
Series [7] deals with Quadruplex DNA. Nature of the series: Binding affinity to c-MYC G-quadruplex (Pu22) DNA (unknown origin) assessed as association rate constant by surface plasmon resonance analysis. Format: nucleic-acid assay. A general note: Surface plasmon resonance follows binding to a sensor surface in real time, without labels.
Series [8] has as its system Quadruplex DNA. In words: Thermal stabilization of c-MYC G-quadruplex (Pu22) DNA (unknown origin) assessed as change in melting temperature at 1:1 ratio by circular dichroism spectroscopy. Format: nucleic-acid assay.
A further series concerns L-363. In words: Cytotoxicity against human L-363 cells assessed as inhibition of cell viability incubated for 72 hrs by MTS assay. Format: functional, cell-based. As to conditions: L-363, 72 h. On the technique in general: Formazan colour is commonly taken as a measure of viable cells.
The test system of another series is RPMI-8226. Nature of the series: Cytotoxicity against human RPMI-8226 cells assessed as inhibition of cell viability incubated for 72 hrs by MTS assay. It is filed as functional, cell-based. Particulars: RPMI-8226, 72 h.
Series [9] is described as follows: Cytotoxicity against human ARD cells assessed as inhibition of cell viability incubated for 72 hrs by MTS assay. Format: functional, cell-based.
A short description of series [10]: Cytotoxicity against human JIM1 cells assessed as inhibition of cell viability incubated for 72 hrs by MTS assay. Format: functional, cell-based. Particulars: JIM1, 72 h.
A short description of series [11]: Cytotoxicity against human KMM-1 cells assessed as inhibition of cell viability incubated for 72 hrs by MTS assay. It is filed as functional, cell-based. As to conditions: KMM-1, 72 h.
Another series deals with LP-1. In words: Cytotoxicity against human LP-1 cells assessed as inhibition of cell viability incubated for 72 hrs by MTS assay. Format: functional, cell-based. Particulars: LP-1, 72 h.
The test system of the next series is KMS-12-PE. In words: Cytotoxicity against human KMS-12-PE cells assessed as inhibition of cell viability incubated for 72 hrs by MTS assay. It is filed as functional, cell-based.
Series [12] can be described thus: Cytotoxicity against human KMS-27 cells assessed as inhibition of cell viability incubated for 72 hrs by MTS assay. As to conditions: KMS-27, 72 h. It is filed as functional, cell-based.
A further series has as its system AMO1. Nature of the series: Cytotoxicity against human AMO1 cells assessed as inhibition of cell viability incubated for 72 hrs by MTS assay. It is filed as functional, cell-based. Particulars: AMO1, 72 h.
Series [13] is described as follows: Cytotoxicity against human MOLP8 cells assessed as inhibition of cell viability incubated for 72 hrs by MTS assay. As to conditions: MOLP-8, 72 h. It is filed as functional, cell-based.
For series [14], the system named is Quadruplex DNA. Nature of the series: Thermal stabilization of c-MYC G-quadruplex DNA (unknown origin) assessed as change in melting temperature at 1:1 ratio in absence of K+ by FRET melting assay. It is filed as nucleic-acid assay.
The subject of series [15] is Quadruplex DNA. In words: Thermal stabilization of c-MYC G-quadruplex DNA (unknown origin) assessed as change in melting temperature at 1:1 ratio in presence of K+ by FRET melting assay. Format: nucleic-acid assay.
Series [16] concerns Quadruplex DNA. Nature of the series: Thermal stabilization of c-MYC G-quadruplex DNA (unknown origin) assessed as change in melting temperature at 1:5 ratio by FRET melting assay. Format: nucleic-acid assay.
Another series concerns HeLa. In words: Antiproliferative activity against human HeLa cells assessed as inhibition of cell growth by XTT assay. Format: functional, cell-based.
A short description of series [17]: Antiproliferative activity against human Kidney epithelial cells assessed as inhibition of cell growth by XTT assay. It is filed as toxicity, cell-based.
For series [18], the system named is Quadruplex DNA. In words: Thermal stabilization of c-MYC G-quadruplex DNA (unknown origin) assessed as change in melting temperature at 1:2 ratio by circular dichroism spectroscopy. Format: nucleic-acid assay.
For series [19], the system named is Quadruplex DNA. In words: Binding affinity to c-MYC G-quadruplex (Mer22) DNA (unknown origin) assessed as first order binding constant by isothermal titration calorimetry method. It is filed as nucleic-acid assay.
The subject of series [20] is Quadruplex DNA. In words: Binding affinity to c-MYC G-quadruplex (Mer22) DNA (unknown origin) assessed as second order binding constant by isothermal titration calorimetry method. It is filed as nucleic-acid assay.
For series [21], the system named is Quadruplex DNA. Nature of the series: Binding affinity to c-MYC G-quadruplex (Mer22) DNA (unknown origin) assessed as binding rate constant by surface plasmon resonance analysis. It is filed as nucleic-acid assay.
In series [22] the test system is Quadruplex DNA. Nature of the series: Thermal stabilization of c-MYC G-quadruplex (Mer22) DNA (unknown origin) assessed as change in melting temperature at 1:3 ratio by UV-Vis spectroscopy. It is filed as nucleic-acid assay.
The test system of series [23] is Quadruplex DNA. In words: Thermal stabilization of c-MYC G-quadruplex (Mer22) DNA (unknown origin) assessed as change in melting temperature at 1:3 ratio by FRET melting assay. It is filed as nucleic-acid assay.
The subject of series [24] is Quadruplex DNA. Nature of the series: Binding affinity to c-MYC G-quadruplex (Pu22) DNA (unknown origin) assessed as association constant by fluorescence spectroscopy. It is filed as nucleic-acid assay.
The test system of series [25] is Quadruplex DNA. In words: Binding affinity to c-MYC G-quadruplex (Pu22) DNA (unknown origin) assessed as association rate constant by isothermal titration calorimetry method. It is filed as nucleic-acid assay.

As to `CN(C)CCn1c(NC(=O)c2ccc3ccc4ccc(C(=O)Nc5nc6ccccc6n5CCN(C)C)nc4c3n2)nc2ccccc21`, in the series on Quadruplex DNA [1], the Ka was 2.41 10^5/M. Further, in the series on Quadruplex DNA [2], the shift in melting temperature (ΔTm) was determined as 19.6 °C.

Take `c1cc2ccc3ccc4nc3c2nc1CNCCCCCCNC4`: the Ka with Quadruplex DNA [3] was 1.4 10^5/M. Moreover, the ΔTm in the series with Quadruplex DNA [4] was determined as 11.3 °C; in the series on Quadruplex DNA [5] it was 19.3 °C.

As for `CC1=CC2(c3cc(C)ccn3)C(=O)C=C(c3ccc4ccccc4c3)N2C=C1` (stereo not given), the Ka in the series with Quadruplex DNA [6] is 1 10^6/M.

For the compound `Cc1ccc(NC(=O)c2c(C)oc3ccc(O)c(CN4CCCCCC4)c23)cc1`, the Ka with Quadruplex DNA [7] was 2.2 10^5/M. Also, the ΔTm with Quadruplex DNA [8] was found to be 2.1 °C. The IC50 was 5.8 µM in the series on L-363; 15.9 µM with RPMI-8226; 12.9 µM in series [9]; 14.1 µM in series [10]; 15.6 µM in [11]; 8.3 µM with LP-1. For the same compound, the half-maximal inhibitory concentration (IC50) turned out to be 6.5 µM in the series with KMS-12-PE, 9.6 µM in series [12], 11.3 µM in the series with AMO1 and 8.3 µM in series [13].

For the compound `CN(C)CCCNC(=O)c1ccc(-n2cc(-c3ccc4[nH]c5ccc(-c6cn(-c7ccc(C(=O)NCCCN(C)C)cc7)nn6)cc5c4c3)nn2)cc1`, the values for the shift in melting temperature (ΔTm) in the series with Quadruplex DNA [14] and with Quadruplex DNA [15] were 23.5 °C and 24 °C, respectively.

For `CN(CCCCn1cc(CCCC(=O)OC[C@H]2O[C@@H](n3cnc4c(=O)[nH]c(N)nc43)[C@@H]3OC(C)(C)O[C@@H]32)nn1)Cc1c2ccccc2c(CN(C)CCCCn2cc(CCCC(=O)OC[C@H]3O[C@@H](n4cnc5c(=O)[nH]c(N)nc54)[C@@H]4OC(C)(C)O[C@@H]43)nn2)c2ccccc12`, the Ka in the series on Quadruplex DNA [6] was 2.56 10^6/M. In addition, the ΔTm in the series on Quadruplex DNA [16] turned out to be 8.8 °C. The half-inhibitory concentration (IC50) in the series with HeLa is 6.2 µM; in [17], over 50 µM.

On to `CN(C)c1ccc2cc3c([n+](CCCCCCCCNC(=O)c4ccc(I)cc4)c2c1)C=CCC3`, for which the Ka with Quadruplex DNA [3] is 7.4 10^7/M. Moreover, in the series on Quadruplex DNA [18], the ΔTm is 33.9 °C.

On to `Nc1nc(-c2ccccc2)c2c(n1)-c1cc(OCCN3CCCC3)ccc1C2=O`, for which the Ka in the series with Quadruplex DNA [6] is 1 10^5/M. In the series with Quadruplex DNA [5], the ΔTm was 7.8 °C.

On to `NCC1=C2CNC(=O)C3=CC(CN)=C(CNC(=O)c4cc(CN)c(o4)CNC(=O)C4=CC(CN)=C(CNC(=O)C(=C1)O2)O4)O3`, for which the K is 2.4 10^7/M in the series with Quadruplex DNA [19], 1.86 10^6/M in the series with Quadruplex DNA [20] and 2.87 10^7/M in the series on Quadruplex DNA [21]. In addition, the ΔTm with Quadruplex DNA [22] and in the series on Quadruplex DNA [23] was 18 °C in each case.

For the compound `C(=N\Nc1nc(Nc2ccccc2)nc(Nc2ccccc2)n1)/c1c2ccccc2cc2ccccc12`, the Ka with Quadruplex DNA [24] was 8.33 10^5/M; in the series on Quadruplex DNA [25] it was 9.53 10^4/M.

In general, ΔTm refers to the shift of the melting midpoint relative to a reference. The IC50 is the concentration at which inhibition is half-maximal.
